Test results taken from PMC11912475 (Journal of Medicinal Chemistry, 2025).

How the values were obtained:
[1] = target: T1, GluN1-GluN2B NMDAR subtype (Homo sapiens, UniProt Q05586+Q13224); assay: FLIPR/Ca2+ assay, NMDAR GluN1-GluN2B subtype in CHO cells; type: cell-based; details: CHO cells, 10 μM L-glutamate and 10 μM glycine; n.d. = 50% of inhibition could not be reached at the highest concentration used
T1 construct: host or cells: NR1-2B-CHO cells, constitutive expression
Outline: (§1)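 Fluo-4-loaded CHO cells (with probenecid and 500 μM ketamine during loading) stimulated with 10 μM L-glutamate plus 10 μM glycine added together with compounds, in HEPES buffer pH 7.3 with 2 mM CaCl2.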

[2] = target: GluN1-GluN2A NMDAR subtype (Homo sapiens, UniProt Q05586+Q12879); assay: FLIPR/Ca2+ assay, NMDAR GluN1-GluN2A subtype in CHO cells; type: cell-based; details: CHO cells, 10 μM L-glutamate and 10 μM glycine; n.d. = 50% of inhibition could not be reached at the highest concentration used
Outline: as §1

[3] = target: GluN1-GluN2C NMDAR subtype (Homo sapiens, UniProt Q05586+Q14957); assay: FLIPR/Ca2+ assay, NMDAR GluN1-GluN2C subtype in CHO cells; type: cell-based; details: CHO cells, 10 μM L-glutamate and 10 μM glycine; n.d. = 50% of inhibition could not be reached at the highest concentration used
Outline: as §1

Serotonin 5-HT2A = target: T2, Serotonin 5-HT2A (Homo sapiens, UniProt P28223); assay: Radioligand displacement binding assay, [3H]ketanserin, 5-HT2A
T2 construct: host or cells: CHO-K1

[4] = target: T3, Norepinephrine transporter NET (Homo sapiens, UniProt P23975); assay: Radioligand displacement binding assay, [125I]RTI-55, NET
T3 construct: host or cells: MDCK

Muscarinic M5 = target: T4, Muscarinic M5 (Homo sapiens, UniProt P08912); assay: Radioligand displacement binding assay, [3H]N-methylscopolamine, M5
T4 construct: host or cells: CHO-K1
T4 sequence (P08912 1-532): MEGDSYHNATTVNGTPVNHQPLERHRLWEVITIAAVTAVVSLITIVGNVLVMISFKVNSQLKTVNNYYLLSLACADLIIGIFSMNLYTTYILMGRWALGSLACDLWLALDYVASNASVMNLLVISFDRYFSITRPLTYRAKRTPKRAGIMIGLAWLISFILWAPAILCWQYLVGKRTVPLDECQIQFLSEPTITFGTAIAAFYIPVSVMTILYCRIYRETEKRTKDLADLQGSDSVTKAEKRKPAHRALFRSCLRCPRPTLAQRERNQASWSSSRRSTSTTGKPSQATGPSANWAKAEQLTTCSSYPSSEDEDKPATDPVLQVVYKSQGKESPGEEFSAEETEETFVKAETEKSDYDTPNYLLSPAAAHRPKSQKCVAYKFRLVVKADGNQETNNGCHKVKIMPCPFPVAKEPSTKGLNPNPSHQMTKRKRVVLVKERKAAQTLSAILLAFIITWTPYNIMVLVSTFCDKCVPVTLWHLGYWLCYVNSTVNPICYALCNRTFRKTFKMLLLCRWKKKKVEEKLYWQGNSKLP

Serotonin 5-HT5A = target: T5, Serotonin 5-HT5A (Homo sapiens, UniProt P47898); assay: Radioligand displacement binding assay, [3H]LSD, 5-HT5A
T5 construct: host or cells: CHO-K1

Serotonin 5-HT7 = target: T6, Serotonin 5-HT7 (Homo sapiens, UniProt P34969); assay: Radioligand displacement binding assay, [3H]LSD, 5-HT7
T6 construct: host or cells: CHO-K1

Sigma σ1 = target: T7, Sigma σ1 (Homo sapiens, UniProt Q99720); assay: Radioligand displacement binding assay, [3H]pentazocine, sigma σ1
T7 construct: Sigma σ1; Source: Human Jurkat cells; host or cells: Jurkat

[5] = target: GluN1-GluN2D NMDAR subtype (Homo sapiens, UniProt O15399+Q05586); assay: FLIPR/Ca2+ assay, NMDAR GluN1-GluN2D subtype in CHO cells; type: cell-based; details: CHO cells, 10 μM L-glutamate and 10 μM glycine; n.d. = 50% of inhibition could not be reached at the highest concentration used
Outline: as §1

Histamine H1 = target: T8, Histamine H1 (Homo sapiens, UniProt P35367); assay: Radioligand displacement binding assay, [3H]pyrilamine, H1
T8 construct: host or cells: CHO-K1

[6] = target: T9, Serotonin transporter SERT (Homo sapiens, UniProt P31645); assay: Radioligand displacement binding assay, [3H]paroxetine, SERT; details: for inhibition at 10 µM / % inhibition of binding, SERT: 10 μM
T9 construct: host or cells: HEK-293

[7] = system: Glutamate, NMDA, Phencyclidine binding site; assay: Radioligand displacement binding assay, [3H]TCP, NMDA; parameters: species or system Wistar rat
Serotonin 5-HT1A = target: T10, Serotonin 5-HT1A (Homo sapiens, UniProt P08908); assay: Radioligand displacement binding assay, [3H]8-OH-DPAT, 5-HT1A
T10 construct: host or cells: CHO-K1
T10 sequence (P08908 1-422): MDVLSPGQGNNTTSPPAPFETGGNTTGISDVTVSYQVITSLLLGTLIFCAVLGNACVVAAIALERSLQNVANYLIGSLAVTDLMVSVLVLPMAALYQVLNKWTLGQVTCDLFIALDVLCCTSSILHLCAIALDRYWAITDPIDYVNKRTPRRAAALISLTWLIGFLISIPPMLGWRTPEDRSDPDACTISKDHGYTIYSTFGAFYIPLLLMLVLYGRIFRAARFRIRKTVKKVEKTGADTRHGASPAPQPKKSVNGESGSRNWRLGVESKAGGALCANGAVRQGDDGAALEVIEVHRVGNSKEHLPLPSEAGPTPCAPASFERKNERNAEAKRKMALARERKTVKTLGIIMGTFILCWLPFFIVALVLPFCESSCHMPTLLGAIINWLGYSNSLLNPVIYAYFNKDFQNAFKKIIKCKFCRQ

μ opioid receptor (MOP) = target: T11, μ opioid receptor (MOP) (Homo sapiens, UniProt P35372); assay: biochemical; type: binding; details: for inhibition at 0.3 µM / inhibition at 3 µM: read-out: % inhibition of binding, MOP
T11 construct: host or cells: CHO-K1

Serotonin 5-HT2C = target: T12, Serotonin 5-HT2C (Homo sapiens, UniProt P28335); assay: Radioligand displacement binding assay, [3H]mesulergine, 5-HT2C
T12 construct: host or cells: CHO-K1
T12 sequence (P28335 33-458): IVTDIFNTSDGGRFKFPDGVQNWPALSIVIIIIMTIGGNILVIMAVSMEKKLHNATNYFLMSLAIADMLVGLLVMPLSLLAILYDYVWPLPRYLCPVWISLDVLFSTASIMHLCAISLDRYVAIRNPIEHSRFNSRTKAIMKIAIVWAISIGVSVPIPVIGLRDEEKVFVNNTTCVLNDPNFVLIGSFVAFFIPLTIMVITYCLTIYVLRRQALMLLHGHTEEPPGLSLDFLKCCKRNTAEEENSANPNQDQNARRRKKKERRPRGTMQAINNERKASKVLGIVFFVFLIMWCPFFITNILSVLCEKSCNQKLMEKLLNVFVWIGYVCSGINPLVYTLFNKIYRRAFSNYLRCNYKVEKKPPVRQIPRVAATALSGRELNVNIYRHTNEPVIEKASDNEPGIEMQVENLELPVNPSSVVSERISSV

T1 sequence (Q13224 27-1484, other chains not shown): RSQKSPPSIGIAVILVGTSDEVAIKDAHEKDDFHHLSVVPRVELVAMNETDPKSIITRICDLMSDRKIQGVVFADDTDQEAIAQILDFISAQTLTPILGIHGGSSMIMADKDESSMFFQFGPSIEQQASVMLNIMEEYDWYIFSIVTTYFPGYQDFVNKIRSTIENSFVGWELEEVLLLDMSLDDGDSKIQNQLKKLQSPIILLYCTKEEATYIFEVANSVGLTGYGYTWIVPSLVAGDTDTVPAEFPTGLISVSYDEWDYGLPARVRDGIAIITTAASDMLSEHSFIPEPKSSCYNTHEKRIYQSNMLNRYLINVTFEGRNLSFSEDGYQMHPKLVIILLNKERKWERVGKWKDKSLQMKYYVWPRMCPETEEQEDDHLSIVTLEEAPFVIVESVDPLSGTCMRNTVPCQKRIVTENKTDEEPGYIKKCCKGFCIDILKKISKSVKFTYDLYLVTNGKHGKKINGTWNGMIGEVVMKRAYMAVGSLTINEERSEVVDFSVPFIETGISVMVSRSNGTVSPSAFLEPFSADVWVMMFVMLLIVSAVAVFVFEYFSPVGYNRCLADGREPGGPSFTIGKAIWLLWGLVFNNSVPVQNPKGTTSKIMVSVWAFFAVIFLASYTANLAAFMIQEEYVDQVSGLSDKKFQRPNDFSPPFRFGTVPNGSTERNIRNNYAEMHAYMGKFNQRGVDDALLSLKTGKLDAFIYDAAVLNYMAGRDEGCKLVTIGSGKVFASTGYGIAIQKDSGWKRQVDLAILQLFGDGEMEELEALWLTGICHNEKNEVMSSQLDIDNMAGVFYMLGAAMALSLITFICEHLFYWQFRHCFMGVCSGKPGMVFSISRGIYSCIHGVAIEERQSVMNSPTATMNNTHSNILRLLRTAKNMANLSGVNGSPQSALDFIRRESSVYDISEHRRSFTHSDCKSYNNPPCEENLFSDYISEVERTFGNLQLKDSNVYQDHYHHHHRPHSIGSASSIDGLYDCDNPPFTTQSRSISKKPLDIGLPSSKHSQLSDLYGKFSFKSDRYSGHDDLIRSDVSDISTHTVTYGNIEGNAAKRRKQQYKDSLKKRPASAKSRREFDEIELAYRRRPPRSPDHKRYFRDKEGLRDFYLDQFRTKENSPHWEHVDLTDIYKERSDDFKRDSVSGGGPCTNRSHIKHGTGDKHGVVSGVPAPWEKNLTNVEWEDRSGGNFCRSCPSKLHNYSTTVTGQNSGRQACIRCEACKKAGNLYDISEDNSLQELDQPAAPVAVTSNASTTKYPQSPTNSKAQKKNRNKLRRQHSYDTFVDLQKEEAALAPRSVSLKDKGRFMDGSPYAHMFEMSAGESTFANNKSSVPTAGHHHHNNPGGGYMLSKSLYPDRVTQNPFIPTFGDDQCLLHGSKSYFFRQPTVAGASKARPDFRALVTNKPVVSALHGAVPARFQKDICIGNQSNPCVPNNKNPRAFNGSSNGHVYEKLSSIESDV
GluN1-GluN2C NMDAR subtype, sequence (Q14957 20-1233, other chains not shown): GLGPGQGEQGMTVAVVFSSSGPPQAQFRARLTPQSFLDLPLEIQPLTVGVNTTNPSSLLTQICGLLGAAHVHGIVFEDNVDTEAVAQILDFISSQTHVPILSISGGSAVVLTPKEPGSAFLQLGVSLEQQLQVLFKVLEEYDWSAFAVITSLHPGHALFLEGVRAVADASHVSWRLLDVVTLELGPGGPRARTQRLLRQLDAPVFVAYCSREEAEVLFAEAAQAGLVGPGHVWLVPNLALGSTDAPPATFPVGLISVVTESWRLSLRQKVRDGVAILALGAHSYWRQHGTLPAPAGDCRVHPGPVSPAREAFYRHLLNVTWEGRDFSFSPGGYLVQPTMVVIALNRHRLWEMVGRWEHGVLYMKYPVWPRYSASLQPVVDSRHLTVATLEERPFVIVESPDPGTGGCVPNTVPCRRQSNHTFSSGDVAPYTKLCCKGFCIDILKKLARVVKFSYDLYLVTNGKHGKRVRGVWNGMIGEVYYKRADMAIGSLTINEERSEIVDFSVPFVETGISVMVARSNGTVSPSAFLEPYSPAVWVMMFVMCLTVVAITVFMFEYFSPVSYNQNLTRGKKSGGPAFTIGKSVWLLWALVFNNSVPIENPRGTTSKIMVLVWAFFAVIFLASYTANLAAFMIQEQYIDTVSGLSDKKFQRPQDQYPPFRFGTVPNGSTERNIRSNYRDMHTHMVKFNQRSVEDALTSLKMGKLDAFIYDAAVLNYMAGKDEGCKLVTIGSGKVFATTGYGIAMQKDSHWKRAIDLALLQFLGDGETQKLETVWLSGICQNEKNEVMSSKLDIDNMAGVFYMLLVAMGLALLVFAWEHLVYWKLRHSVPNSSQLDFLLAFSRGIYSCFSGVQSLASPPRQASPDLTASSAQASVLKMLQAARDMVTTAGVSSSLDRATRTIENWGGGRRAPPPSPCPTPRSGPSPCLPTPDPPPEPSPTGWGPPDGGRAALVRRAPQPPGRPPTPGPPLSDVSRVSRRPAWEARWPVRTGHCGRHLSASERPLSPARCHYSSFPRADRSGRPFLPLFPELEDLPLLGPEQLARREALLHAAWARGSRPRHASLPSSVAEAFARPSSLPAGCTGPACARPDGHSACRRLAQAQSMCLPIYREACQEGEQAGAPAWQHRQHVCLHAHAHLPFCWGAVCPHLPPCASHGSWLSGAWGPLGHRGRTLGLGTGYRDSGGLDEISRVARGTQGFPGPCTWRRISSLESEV
T7 sequence (Q99720 whole entry): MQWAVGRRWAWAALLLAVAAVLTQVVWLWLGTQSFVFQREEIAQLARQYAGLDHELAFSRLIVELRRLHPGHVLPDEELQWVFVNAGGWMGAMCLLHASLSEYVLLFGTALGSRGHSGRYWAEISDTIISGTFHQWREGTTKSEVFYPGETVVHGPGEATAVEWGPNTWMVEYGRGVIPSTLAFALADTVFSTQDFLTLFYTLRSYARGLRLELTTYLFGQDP
T5 sequence (P47898 whole entry): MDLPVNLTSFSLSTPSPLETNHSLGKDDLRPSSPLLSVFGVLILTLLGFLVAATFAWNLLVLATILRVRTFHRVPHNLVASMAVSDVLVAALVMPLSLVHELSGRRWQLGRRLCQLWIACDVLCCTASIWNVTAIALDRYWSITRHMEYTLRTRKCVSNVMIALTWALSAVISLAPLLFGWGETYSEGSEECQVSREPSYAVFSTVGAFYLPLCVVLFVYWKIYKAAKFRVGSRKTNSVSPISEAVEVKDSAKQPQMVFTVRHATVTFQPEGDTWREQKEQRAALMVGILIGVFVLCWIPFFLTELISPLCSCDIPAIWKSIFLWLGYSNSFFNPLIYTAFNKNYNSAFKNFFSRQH
T9 sequence (P31645 whole entry): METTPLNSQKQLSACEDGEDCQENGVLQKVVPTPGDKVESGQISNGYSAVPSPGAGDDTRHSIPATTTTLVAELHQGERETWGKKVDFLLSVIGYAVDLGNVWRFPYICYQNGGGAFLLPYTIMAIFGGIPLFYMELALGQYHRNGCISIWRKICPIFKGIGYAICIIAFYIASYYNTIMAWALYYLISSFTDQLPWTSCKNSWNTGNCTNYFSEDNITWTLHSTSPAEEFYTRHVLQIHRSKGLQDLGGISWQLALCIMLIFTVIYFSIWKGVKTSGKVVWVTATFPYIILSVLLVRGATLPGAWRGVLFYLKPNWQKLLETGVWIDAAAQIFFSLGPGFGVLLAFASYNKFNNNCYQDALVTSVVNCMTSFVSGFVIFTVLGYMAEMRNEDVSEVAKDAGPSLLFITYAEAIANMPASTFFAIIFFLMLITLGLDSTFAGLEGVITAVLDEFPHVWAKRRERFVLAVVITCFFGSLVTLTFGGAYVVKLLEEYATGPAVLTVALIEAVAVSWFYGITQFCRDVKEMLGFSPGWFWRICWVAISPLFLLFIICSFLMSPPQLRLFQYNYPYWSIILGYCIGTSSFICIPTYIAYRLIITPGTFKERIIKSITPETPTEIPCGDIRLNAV
T2 sequence (P28223 whole entry): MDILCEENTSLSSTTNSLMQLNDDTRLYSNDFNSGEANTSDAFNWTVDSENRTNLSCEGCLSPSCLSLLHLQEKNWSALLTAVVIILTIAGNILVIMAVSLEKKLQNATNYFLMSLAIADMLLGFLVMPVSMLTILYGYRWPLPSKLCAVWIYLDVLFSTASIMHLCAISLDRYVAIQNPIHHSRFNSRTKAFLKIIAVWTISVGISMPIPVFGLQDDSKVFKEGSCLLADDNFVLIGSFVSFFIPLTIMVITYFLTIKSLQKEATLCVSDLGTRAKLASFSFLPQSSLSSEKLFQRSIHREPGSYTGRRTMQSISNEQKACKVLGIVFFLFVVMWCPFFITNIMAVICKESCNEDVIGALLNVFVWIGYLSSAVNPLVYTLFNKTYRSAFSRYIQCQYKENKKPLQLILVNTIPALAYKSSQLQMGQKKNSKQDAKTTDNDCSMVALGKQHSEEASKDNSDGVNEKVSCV
T3 sequence (P23975 whole entry): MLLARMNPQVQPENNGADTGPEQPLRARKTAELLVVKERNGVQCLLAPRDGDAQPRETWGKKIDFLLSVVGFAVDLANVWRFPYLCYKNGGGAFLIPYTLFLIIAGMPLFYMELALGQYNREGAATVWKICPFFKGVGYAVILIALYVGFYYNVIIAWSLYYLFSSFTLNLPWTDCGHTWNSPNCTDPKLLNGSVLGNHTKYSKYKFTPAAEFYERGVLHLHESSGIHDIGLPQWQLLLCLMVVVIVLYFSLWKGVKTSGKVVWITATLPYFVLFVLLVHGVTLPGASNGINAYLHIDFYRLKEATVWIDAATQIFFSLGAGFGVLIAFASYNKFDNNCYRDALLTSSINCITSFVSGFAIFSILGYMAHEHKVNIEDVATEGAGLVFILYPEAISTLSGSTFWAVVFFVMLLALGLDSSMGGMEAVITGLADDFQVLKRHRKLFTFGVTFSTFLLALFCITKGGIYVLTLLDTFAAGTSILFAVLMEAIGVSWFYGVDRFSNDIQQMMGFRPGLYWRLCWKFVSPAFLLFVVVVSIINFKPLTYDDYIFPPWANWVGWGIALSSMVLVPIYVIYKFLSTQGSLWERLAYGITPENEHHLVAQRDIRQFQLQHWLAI

| SMILES | pIC50 (mean ± SEM) GluN1-GluN2B [1] | pIC50 (mean ± SEM) GluN1-GluN2A [2] | pIC50 (mean ± SEM) GluN1-GluN2C [3] | inhibition at 0.3 µM (Serotonin 5-HT2A) [%] | inhibition at 3 µM (Serotonin 5-HT2A) [%] | inhibition at 1 µM [4] [%] | inhibition at 10 µM [4] [%] | inhibition at 1 µM (Muscarinic M5) [%] | inhibition at 10 µM (Muscarinic M5) [%] | inhibition at 1 µM (Serotonin 5-HT5A) [%] | inhibition at 10 µM (Serotonin 5-HT5A) [%] | inhibition at 1 µM (Serotonin 5-HT7) [%] | inhibition at 10 µM (Serotonin 5-HT7) [%] | inhibition at 0.3 µM (Sigma σ1) [%] | inhibition at 3 µM (Sigma σ1) [%] | pIC50 (mean ± SEM) GluN1-GluN2D [5] | inhibition at 10 µM (Histamine H1) [%] | inhibition at 30 µM (Histamine H1) [%] | inhibition at 1 µM [6] [%] | inhibition at 10 µM [6] [%] | other results |
| --- | --- | --- | --- | --- | --- | --- | --- | --- | --- | --- | --- | --- | --- | --- | --- | --- | --- | --- | --- | --- | --- |
| CC[C@H](O)C(C[C@@H](C)N)(c1ccccc1)c1ccccc1 [(3S,6R)-DNML, (3S,6R)-6-amino-4,4-diphenylheptan-3-ol] | 4.4 ± 0.042 | 4.5 ± 0.031 | 4.6 ± 0.038 | 9 | 10 | 0 | 22 | 12 | 39 | -1 | 11 | 8 | 5 | -4 | 18 | 4.7 ± 0.061 | 15 | 28 | 15 | 36 | % inhibition of binding, NMDA ([7]; 1 μM): 8%; % inhibition of binding, NMDA ([7]; 10 μM): 38%; inhibition at 0.3 µM (Serotonin 5-HT1A): -11%; inhibition at 3 µM (Serotonin 5-HT1A): -1%; inhibition at 0.3 µM (μ opioid receptor (MOP)): 9%; inhibition at 3 µM (μ opioid receptor (MOP)): 23%; inhibition at 0.3 µM (Serotonin 5-HT2C): 9%; inhibition at 3 µM (Serotonin 5-HT2C): 27% |
| CC[C@H](O)C(C[C@@H](C)NC)(c1ccccc1)c1ccccc1 [(3S,6R)-NML, (3S,6R)-6-(methylamino)-4,4-diphenylheptan-3-ol] | 4.6 ± 0.047 | 4.8 ± 0.050 | 5.0 ± 0.049 | -3 | 11 | 4 | 9 | 21 | 74 | 4 | 42 | 11 | 7 | -1 | 26 | 5.0 ± 0.058 | 7 | 27 | 10 | 61 | % inhibition of binding, SERT [6]: displaced; % inhibition of binding, NMDA ([7]; 1 μM): -5%; % inhibition of binding, NMDA ([7]; 10 μM): 51%; pKi (mean ± SEM) [3H]TCP, NMDA ([7]; Wistar rat cerebral cortex, 4.0 nM [3H]TCP): 5.54 ± 0.09; inhibition at 0.3 µM (Serotonin 5-HT1A): -1%; inhibition at 3 µM (Serotonin 5-HT1A): -4%; pKi (mean ± SEM) [3H]diprenorphine, MOP (μ opioid receptor (MOP)): 5.55 ± 0.17; inhibition at 0.3 µM (μ opioid receptor (MOP)): 2%; inhibition at 3 µM (μ opioid receptor (MOP)): 26%; inhibition at 0.3 µM (Serotonin 5-HT2C): 15%; inhibition at 3 µM (Serotonin 5-HT2C): 68% |
| CC[C@H](O)C(C[C@H](C)N)(c1ccccc1)c1ccccc1 [(3S,6S)-DNML, (3S,6S)-6-amino-4,4-diphenylheptan-3-ol] | 4.4 ± 0.13 | 4.9 ± 0.081 | 4.7 ± 0.056 | 12 | 10 | -5 | 3 | 1 | 9 | -7 | -12 | 5 | 4 | 46 | 71 | 4.7 ± 0.079 | 5 | 24 | 35 | 82 | % inhibition of binding, SERT [6]: displaced; % inhibition of binding, NMDA ([7]; 1 μM): 9%; % inhibition of binding, NMDA ([7]; 10 μM): 36%; inhibition at 0.3 µM (Serotonin 5-HT1A): 24%; inhibition at 3 µM (Serotonin 5-HT1A): 15%; inhibition at 0.3 µM (μ opioid receptor (MOP)): 38%; inhibition at 3 µM (μ opioid receptor (MOP)): 84%; inhibition at 0.3 µM (Serotonin 5-HT2C): 1%; inhibition at 3 µM (Serotonin 5-HT2C): 19% |
| CC[C@H](O)C(C[C@H](C)NC)(c1ccccc1)c1ccccc1 [(3S,6S)-NML, (3S,6S)-6-(methylamino)-4,4-diphenylheptan-3-ol] | 4.7 ± 0.080 | 4.6 ± 0.062 | 4.7 ± 0.042 | -10 | -11 | -12 | 12 | 2 | 15 | 1 | 10 | 12 | 23 | 46 | 77 | 4.6 ± 0.065 | 33 | 65 | 2 | 25 | displacement at the Sigma-1 (σ1) receptor, in words (Sigma σ1; concentration not given): high displacement percentages; displacement at the histamine H1 receptor, in words (Histamine H1; concentration not given): significant displacement percentages; % inhibition of binding, NMDA ([7]; 1 μM): 9%; inhibition at 0.3 µM (Serotonin 5-HT1A): -4%; inhibition at 3 µM (Serotonin 5-HT1A): 1%; inhibition at 0.3 µM (μ opioid receptor (MOP)): 65%; inhibition at 3 µM (μ opioid receptor (MOP)): 95%; displacement at the MOP, in words (μ opioid receptor (MOP); concentration not given): high displacement percentages; inhibition at 0.3 µM (Serotonin 5-HT2C): 5%; inhibition at 3 µM (Serotonin 5-HT2C): 28% |
